Laboratory results as given in patent US10072021B2, “Compound for inhibiting binding between DX2 protein and P14/ARF protein, and pharmaceutical composition for treating or preventing cancer disease containing same as effective ingredient” (PUSAN NATIONAL UNIVERSITY INDUSTRY-UNIVERSITY COOPERATION …, priority 2014, dated 2018).

Assays:
[1] = system: H128 cells (SCLC cell line); experiment: MTT viability of H128 cells; format: cell-based, human; details: MTT assay, FIG. 7
Description: By MTT assay, anticancer effects were confirmed based on viability of tumor cells. That is, cells were incubated in 0.5 mg/ml of MTT solution for 4 hours at a temperature of 37° C. for a reaction, and then, formazen products formed therefrom were dissolved in dimethyl sulfoxide (DMSO). Then, absorbance thereof was measured at 540 nm by using a spectrometer.

p53-p14/ARF interaction = molecular target: T1, p53-p14/ARF interaction (Homo sapiens, UniProt P04637+Q8N726); experiment: GST pull-down assay, selectivity: p53-p14/ARF interaction; format: binding; details: FIG. 3D, 3E
T1 construct: a p14/ARF fragment (full-length) was ligated into EcoRI and Hind II sites of pGEX-TEV vector; made in house; host or cells: E. coli BL21(DE3) for GST-p14/ARF
Text: (§1) Through GST pull-down assays, more specific binding inhibitors were selected among the previously screened candidate drugs as DX2-p14/ARF binding inhibitors. That is, a p14/ARF fragment (full-length) was ligated into EcoRI and Hind II sites of pGEX-TEV vector, which is a modified vector by adding a TEV protease cleavage site to pGEX-4T1. The recombinant proteins were then expressed in E. coli strain BL21(DE3) as GST-fusion proteins. The proteins were purified by glutathione affinity chromatography.
(§2) To address direct binding between the two proteins, agarose-bead conjugated GST (negative control) or GST-target protein was incubated with cell lysate or recombinant protein in radioimmunoprecipitation assay (RIPA) buffer (NaCl, 25 mM Tris-Cl, 1% NP-40, 1% sodium deoxycholate, 0.1% SDS, protease inhibitor mixture) for 1 hour at a temperature of 4° C. for a reaction.

DX2-p14/ARF binding = molecular target: T2, DX2-p14/ARF binding (Homo sapiens, UniProt Q13155); experiment: GST pull-down assay of DX2-p14/ARF binding; details: FIG. 2A, 3A, 3D, 3E
T2 construct: made in house; host or cells: E. coli BL21(DE3) for GST-p14/ARF; DX2 from 'cell lysate or recombinant protein'
T2 sequence (Q13155 1-251 isoform Q13155-2): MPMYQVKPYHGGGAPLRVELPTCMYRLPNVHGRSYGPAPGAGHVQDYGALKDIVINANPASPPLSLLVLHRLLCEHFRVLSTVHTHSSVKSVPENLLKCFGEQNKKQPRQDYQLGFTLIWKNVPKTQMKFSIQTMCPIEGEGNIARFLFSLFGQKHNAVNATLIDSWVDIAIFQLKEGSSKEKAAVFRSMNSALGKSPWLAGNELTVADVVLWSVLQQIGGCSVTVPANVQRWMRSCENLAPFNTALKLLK
Text: as §1, §2

lung tumors of DK mice = experiment: In vivo anticancer effect in DK mice (lung tumors); details: DK mice, non-toxic dose of Adriamycin, FIG. 10B
Description: All experimental procedures using laboratory animals were approved by the animal care committee of Pusan National University. DX2 (C57/BL6) and K-RasLA2 (C57/BL6) mice were obtained from Dr. Kim, Sung-Hoon and Professor. Choi, Kang-Ryeol (Yonsei University), respectively, and double Tg mice were obtained by cross-breeding of DX2 and K-RasLA2 mice. Before experiment, all mice were maintained under temperature- and light-controlled conditions (20-23° C., 12 h/12 h light/dark cycle), and provided autoclaved food and water.
Every weeks, tumor volume and body weight were measured.
After dissection of mice, tissues were fixed using 10% formalin (in PBS) for 24 hours, and embedded in paraffin blocks according to a basic tissue processing procedure. For histological analysis, embedded tissues were cut for […] by Leica microtome (Wetzlar, Germany) and transferred onto adhesive-coated slides (Marienfeld laboratory glassware, Germany). After deparaffin and rehydration, sections were then stained with H&E for routine examination.
For IHC staining, rehydrated tissue sections were incubated with antibodies to Ki-67 (Abcam, ab15580), pan-keratin (Sigma, C2931), pro-surfactant C (Millipore, AB3786), NSE (DAKO, IS612), and HER2/Neu (DAKO, A0458) for a reaction. Antigen retrieval was performed using 10 mM sodium citrate (pH 6.0) twice at a temperature of 95° C. for 10 minutes each, and endogenous peroxidase activity was blocked with 3% […] for 10 min. Then, the slides were dehydrated following a standard procedure and sealed with cover glass using mounting solution. TUNEL reaction was done as described in the manual for In Situ Cell Death Detection Kit, POD (Hoffmann-La Roche Ltd, Basel, Swizerland).
To evaluate tumor incidence, lung tissues of each mouse was fixed and embedded in paraffin. 5 sections from each mouse were examined by 3 independent investigator, who counted tumor. In addition, tumor area was calculated by tumor occupied area in total lung area using photoshop software.

H446 xenograft = system: H446 xenograft
Description: DK (5 month-old, N=6) mice were administered with carrier, SLCB050 (5 or 10 mg/kg), Adriamycin (1, 2.5, or 5 mg/kg), and a combination of SLCB050 and Adriamycin by intraperitoneal (i.p.) injection. After termination of the experiment of each group, mice were dissected and isolated lung tissues. For xenograft, 1×10^7 H446 cells (ATCC) were seeded in nude ice. After 4 weeks, tumor bearing mice were injected with Adriamycin, […], or a combination thereof for 6 weeks. Every weeks, tumor volume and body weight were measured.

T1 sequence (Q8N726 whole entry, the tested form may be a part): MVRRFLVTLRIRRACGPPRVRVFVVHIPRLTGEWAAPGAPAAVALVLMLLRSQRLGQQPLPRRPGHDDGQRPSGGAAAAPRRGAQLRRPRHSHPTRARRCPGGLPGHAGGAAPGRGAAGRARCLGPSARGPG
T1 sequence (P04637 whole entry, the tested form may be a part): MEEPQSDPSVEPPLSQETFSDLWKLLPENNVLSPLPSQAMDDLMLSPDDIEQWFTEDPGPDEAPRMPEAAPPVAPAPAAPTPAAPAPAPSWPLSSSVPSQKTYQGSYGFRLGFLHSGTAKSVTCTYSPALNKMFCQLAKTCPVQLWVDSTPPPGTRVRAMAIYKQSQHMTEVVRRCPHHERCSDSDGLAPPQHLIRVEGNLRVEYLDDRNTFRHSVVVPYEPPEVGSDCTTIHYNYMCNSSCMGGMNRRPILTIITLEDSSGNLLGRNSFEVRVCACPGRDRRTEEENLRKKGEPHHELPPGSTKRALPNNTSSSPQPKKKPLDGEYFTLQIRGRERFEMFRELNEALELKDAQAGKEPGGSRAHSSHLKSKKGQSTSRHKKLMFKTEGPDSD

| Compound | viability of H128 cells [1] | effect on interaction of p53-p14/ARF (p53-p14/ARF interaction) | melting point [°C] | inhibitory effect on DX2-p14/ARF binding (DX2-p14/ARF binding) | anticancer effect, Adriamycin alone (lung tumors of DK mice) | toxicity, Adriamycin alone (H446 xenograft; Adriamycin 5 mg/kg, three times/week) | tumor growth, Adriamycin alone (H446 xenograft; Adriamycin 5 mg/kg, three times/week, FIG. 9B) | response of H446 xenograft model (H446 xenograft; single agents, FIG. 9A) |
| --- | --- | --- | --- | --- | --- | --- | --- | --- |
| CC1(C)Oc2cc3oc(=O)ccc3cc2C[C@@H]1OC(=O)N/C=C/c1ccco1 [HJH141206, (7S)-(+)-2-(Furan-2-yl)vinylcarbamic acid, 8,8-dimethyl-2-oxo-6,7-dihydro-2H, 8H-pyrano[3,2-g]chromen-7-yl-ester] | reduced the viability of H128 cells in a dose-dependent manner | did not affect the interaction of p53-p14/ARF | 58.5 | showed inhibitory effects on DX2-p14/ARF binding | – | – | – | – |
| COc1cc(/C=C/C(=O)O[C@H]2Cc3cc4ccc(=O)oc4cc3OC2(C)C)ccc1O [SLCB36, reference compound] | did not significantly affect the cell viability | did not show inhibitory effect on both binding | – | did not show inhibitory effect on both binding | – | – | – | – |
| CC1(C)Oc2cc3oc(=O)ccc3cc2C[C@H]1OC(=O)N/C=C/c1ccco1 [HJH141204, (7R)-(−)-2-(Furan-2-yl)vinylcarbamic Acid, 8,8-dimethyl-2-oxo-6,7-dihydro-2H,8H-pyrano[3,2-g]chromen-7-yl-ester] | reduced the viability of H128 cells in a dose-dependent manner | did not affect the interaction of p53-p14/ARF | – | showed inhibitory effects on DX2-p14/ARF binding | – | – | – | – |
| COc1cccc2c1C(=O)c1c(O)c3c(c(O)c1C2=O)C[C@@](O)(C(=O)CO)C[C@@H]3O[C@H]1C[C@H](N)[C@H](O)[C@H](C)O1 [Adriamycin, reference compound] | – | – | – | – | did not show anticancer effect | evoked rapid weight loss and death | tumor growth was suppressed within 4 weeks | resistant |
